Measured values: patent publication US12378211B2, “Carbonic anhydrase inhibitors and antibiotics against multidrug resistant bacteria” (Purdue Research Foundation, priority 2018, dated 2025)
≈ marks a conversion by molar mass, not a printed value. Like-named read-outs stand apart in the source and are kept apart here.

What was measured:
[1] = system: Enterococcus faecalis—S613 HM-334; assay: MIC of CAIs in BHIB and TSB; assay type: cell-based
Description: The minimum inhibitory concentrations (MICs) of CAIs were tested against clinical isolates of vancomycin sensitive and vancomycin resistant Enterococci strains as per the guidelines provided by the Clinical and Laboratory Standards Institute (CLSI). The selected strains of Enterococci were streaked on Tryptic Soy Agar (TSA) plates and let grow for 24 hours at 37° C. Afterwards, a bacterial solution equivalent to 0.5 McFarland standard was prepared and diluted in tryptone soy broth (TSB) or brain heart infusion broth (BHIB) to achieve a bacterial concentration of about 5×10^5 CFU/mL and seeded in 96-well well plates. Compounds and control drugs were added in the first row of the 96-well plates and serially diluted along the plates. Plates were then incubated aerobically at 37° C. for 18-20 hours. MICs reported in Table 5 are the minimum concentration of the compounds/control drugs that could inhibit completely the visual growth of the bacteria. The MIC values of CAIs against the tested VRE strains were higher in BHIB than in TSB. This may be due to binding of these drugs to proteins. […] They inhibited the VRE strains at MIC values ranging from 1 to 4 μg/mL.

[2] = system: Enterococcus faecium E417-HM-965; assay: MIC of CAIs in BHIB and TSB; assay type: cell-based
Description: (§1) The minimum inhibitory concentrations (MICs) of CAIs were tested against clinical isolates of vancomycin sensitive and vancomycin resistant Enterococci strains as per the guidelines provided by the Clinical and Laboratory Standards Institute (CLSI). The selected strains of Enterococci were streaked on Tryptic Soy Agar (TSA) plates and let grow for 24 hours at 37° C. Afterwards, a bacterial solution equivalent to 0.5 McFarland standard was prepared and diluted in tryptone soy broth (TSB) or brain heart infusion broth (BHIB) to achieve a bacterial concentration of about 5×10^5 CFU/mL and seeded in 96-well well plates. Compounds and control drugs were added in the first row of the 96-well plates and serially diluted along the plates. Plates were then incubated aerobically at 37° C. for 18-20 hours. MICs reported in Table 5 are the minimum concentration of the compounds/control drugs that could inhibit completely the visual growth of the bacteria.

[3] = system: Enterococcus fecalis Strain SF 24397 NR31970; assay: MIC of CAIs in BHIB and TSB; assay type: cell-based
Description: as §1

[4] = system: Enterococcus faecium Patient #2-1-NR-31909; assay: MIC of CAIs in BHIB and TSB; assay type: cell-based
Description: as §1

[5] = system: Enterococcus faecalis-S613 HM-334; assay: MIC in presence of 4% human serum albumin; assay type: cell-based; conditions: TSB supplemented with 4% human serum albumin
Description: as §1, with “against” for “against clinical isolates of vancomycin sensitive and”, “resistant Enterococcus faecalis—S613 HM 334 strain” for “resistant Enterococci strains”, “selected strain was” for “selected strains of Enterococci were”, “(TSA) plate” for “(TSA) plates”, “(TSB) supplemented with 4% human serum albumin (HAS)” for “(TSB) or brain heart infusion broth (BHIB)”, “in table (6)” for “in Table 5”

[6] = system: Bacteroides fragilis—CL07T00C01 HIM-709; assay: MIC against human normal gut microbiota; assay type: cell-based; conditions: Bacteroides, 48 h
Description: (§2) Three different bacterial strains were used in this experiment; Bifidobacterium (anaerobic Gram positive bacteria), Bacteroides (anaerobic Gram negative bacteria) and Lactobacillus (microaerophilic Gram positive bacteria). Bifidobacterium and Bacteroides were first grown for 48 hours at 37° C., anaerobically using brain heart infusion supplemented (BHIS) agar (Brain heart infusion agar supplemented with hemin, vitamin K and L-cysteine). Lactobacillus was cultivated on MRS agar and incubated in presence of 5% CO2 for 48 hours at 37° C. Each bacterium was suspended in phosphate buffered saline (PBS) to produce a suspension with optical density that matches 0.5 McFarland standard and diluted in brain heart infusion supplemented broth (for Bifidobacterium and Bacteroides) or in MRS broth (for Lactobacillus) to achieve bacterial concentration of approximately 5×10^5 CFU/ml. Bacteria were then seeded in 96-well plates containing serial dilutions of the compounds and incubated as mentioned previously for 48 hours.

[7] = system: Bifidobacterium longum subsp. Longum—44B HM 845; assay: MIC against human normal gut microbiota; assay type: cell-based; conditions: Bifidobacterium longum, 48 h
Description: as §2

[8] = system: Lactobacillus casei ATCC 334; assay: MIC against human normal gut microbiota; assay type: cell-based; conditions: Lacticaseibacillus casei, ATCC334, 48 h
Description: as §2

[9] = system: Bacteroides dorei—CL02T12C06 HM-719; assay: MIC against human normal gut microbiota; assay type: cell-based; conditions: Bacteroides, 48 h
Description: as §2

[10] = system: Bifidobacterium breve—JCP7499 HIM 1120; assay: MIC against human normal gut microbiota; assay type: cell-based; conditions: Bifidobacterium, 48 h
Description: as §2

[11] = system: Lactobacillus gasseri EX336960VC03 HIM-400; assay: MIC against human normal gut microbiota; assay type: cell-based; conditions: Lactobacillus gasseri, 48 h
Description: as §2

[12] = system: MRSA NRS 384 (MRSA USA300); assay: MIC against Staphylococci, broth microdilution; assay type: cell-based, Staphylococcus aureus; conditions: Staphylococcus aureus
Description: (§3) The minimum inhibitory concentrations (MICs) of the compounds and control drugs were determined using the broth microdilution method, according to guidelines outlined by the Clinical and Laboratory Standards Institute (CLSI) 1. Staphylococci strains were grown aerobically overnight on tryptone soya agar plates at 37° C., afterwards a bacterial solution equivalent to 0.5 McFarland standard was prepared and diluted in tryptone soy broth (TSB) to achieve a bacterial concentration of about 5×10^5 CFU/mL and seeded in 96-well well plates. Compounds and control drugs were added in the first row of the 96-well plates and serially diluted along the plates. Plates were then incubated aerobically at 37° C. for 18-20 hours. MICs reported in Table 2 are the minimum concentration of the compounds/control drugs that could inhibit completely the visual growth of the bacteria.

[13] = system: Staphylococcus epidermidis NRS 101; assay: MIC against Staphylococci, broth microdilution; assay type: cell-based; conditions: Staphylococcus epidermidis, NRS101
Description: as §3

[14] = system: Enterococcus faecalis—S613 HM-334; assay: MIC, broth microdilution in TSB; assay type: cell-based; conditions: Enterococcus
Description: as §3, with “Institute (CLSI). Enterococci” for “Institute (CLSI) 1. Staphylococci”, “Table 1” for “Table 2”

[15] = system: Enterococcus fecalis Strain SF24413 NR31971; assay: MIC, broth microdilution in TSB; assay type: cell-based; conditions: Enterococcus
Description: as §3, with “Institute (CLSI). Enterococci” for “Institute (CLSI) 1. Staphylococci”, “Table 1” for “Table 2”

[16] = system: Enterococcus faecium Patient #3-1 NR-31912; assay: MIC, broth microdilution in TSB; assay type: cell-based; conditions: Enterococcus faecium
Description: as §3, with “Institute (CLSI). Enterococci” for “Institute (CLSI) 1. Staphylococci”, “Table 1” for “Table 2”

[17] = system: Enterococcus faecium E417-HM-965; assay: MIC, broth microdilution in TSB; assay type: cell-based; conditions: Enterococcus faecium
Description: as §3, with “Institute (CLSI). Enterococci” for “Institute (CLSI) 1. Staphylococci”, “Table 1” for “Table 2”

[18] = system: Enterococcus fecalis Strain SF 24397 NR31970; assay: MIC, broth microdilution in TSB; assay type: cell-based; conditions: Enterococcus
Description: as §3, with “Institute (CLSI). Enterococci” for “Institute (CLSI) 1. Staphylococci”, “Table 1” for “Table 2”

[19] = system: Enterococcus fecalis Strain SF 28073-NR31972; assay: MIC, broth microdilution in TSB; assay type: cell-based; conditions: Enterococcus
Description: as §3, with “Institute (CLSI). Enterococci” for “Institute (CLSI) 1. Staphylococci”, “Table 1” for “Table 2”

[20] = system: Enterococcus fecalis Strain MMH594-NR31975; assay: MIC, broth microdilution in TSB; assay type: cell-based; conditions: Enterococcus
Description: as §3, with “Institute (CLSI). Enterococci” for “Institute (CLSI) 1. Staphylococci”, “Table 1” for “Table 2”

[21] = system: Enterococcus faecium Patient #2-1-NR-31909; assay: MIC, broth microdilution in TSB; assay type: cell-based; conditions: Enterococcus faecium
Description: as §3, with “Institute (CLSI). Enterococci” for “Institute (CLSI) 1. Staphylococci”, “Table 1” for “Table 2”

[22] = Enterococcus, BHIIB, read-out: MIC
[23] = Enterococcus, TSB, Table 5, read-out: MIC
[24] = Enterococcus faecium, E417HM965, BHIB, read-out: MIC
[25] = Enterococcus faecium, E417HM965, TSB, Table 5, read-out: MIC
[26] = Enterococcus, BHIB, read-out: MIC
[27] = Enterococcus faecium, BHIB, read-out: MIC
[28] = Enterococcus faecium, TSB, Table 5, read-out: MIC

NS(=O)(=O)c1cc(Cl)c(Cl)c(S(N)(=O)=O)c1 [Dichlophenamide]
MIC ([1]; BHIIB): >128 µg/mL
MIC ([1]; TSB, Table 5): 16 µg/mL
MIC ([2]; BHIB): 16 µg/mL
MIC ([2]; TSB, Table 5): 1 µg/mL
MIC ([3]; BHIB): >128 µg/mL
MIC ([3]; TSB, Table 5): 16 µg/mL
MIC ([4]; BHIB): >128 µg/mL
MIC ([4]; TSB, Table 5): 2 µg/mL
MIC [5]: >256 µg/mL

CN[C@H](CC(C)C)C(=O)N[C@H]1C(=O)N[C@@H](CC(N)=O)C(=O)N[C@H]2C(=O)N[C@H]3C(=O)N[C@H](C(=O)N[C@H](C(=O)O)c4cc(O)cc(O)c4-c4cc3ccc4O)[C@H](O)c3ccc(c(Cl)c3)Oc3cc2cc(c3O[C@@H]2O[C@H](CO)[C@@H](O)[C@H](O)[C@H]2O[C@H]2C[C@](C)(N)[C@H](O)[C@H](C)O2)Oc2ccc(cc2Cl)[C@H]1O [Vancomycin, reference compound]
MIC ([1]; Enterococcus): > 128 µg/mL
MIC ([1]; TSB, Table 5): >128 µg/mL
MIC ([2]; Enterococcus faecium, E417HM965): > 128 µg/mL
MIC ([2]; TSB, Table 5): >128 µg/mL
MIC ([3]; Enterococcus): 2 µg/mL
MIC ([3]; TSB, Table 5): 2 µg/mL
MIC ([4]; Enterococcus faecium): > 128 µg/mL
MIC ([4]; TSB, Table 5): >128 µg/mL
MIC [6]: 64 µg/mL (≈ 44.2 µM)
MIC [7]: 8 µg/mL (≈ 5.52 µM)
MIC [8]: > 64 µg/mL
MIC [9]: 64 µg/mL (≈ 44.2 µM)
MIC [10]: 8 µg/mL (≈ 5.52 µM)
MIC [11]: > 64 µg/mL
MIC [12]: 1 µg/mL (≈ 0.69 µM)
MIC [13]: 4 µg/mL (≈ 2.76 µM)
MIC [14]: > 64 µg/mL
MIC ([14]; read-out: MIC in TSB): > 64 µg/mL
MIC [15]: 32 µg/mL (≈ 22.1 µM)
MIC ([15]; read-out: MIC in TSB): 32 µg/mL (≈ 22.1 µM)
MIC [16]: > 64 µg/mL
MIC ([16]; read-out: MIC in TSB): > 64 µg/mL
MIC ([17]; E417HM965): > 64 µg/mL
MIC ([17]; E417HM965, read-out: MIC in TSB): > 64 µg/mL
MIC [18]: 2 µg/mL (≈ 1.38 µM)
MIC ([18]; read-out: MIC in TSB): 2 µg/mL (≈ 1.38 µM)
MIC [19]: > 64 µg/mL
MIC ([19]; read-out: MIC in TSB): > 64 µg/mL
MIC [20]: 2 µg/mL (≈ 1.38 µM)
MIC ([20]; read-out: MIC in TSB): 2 µg/mL (≈ 1.38 µM)
MIC [21]: > 64 µg/mL
MIC ([21]; read-out: MIC in TSB): > 64 µg/mL

CC(=O)/N=c1/sc(S(N)(=O)=O)nn1C [Methazolamide]
MIC [1, 22]: > 128 µg/mL
MIC [1, 23]: 1 µg/mL
MIC [2, 24]: 64 µg/mL
MIC [2, 25]: 4 µg/mL
MIC [3, 26]: > 128 µg/mL
MIC [3, 23]: 2 µg/mL
MIC [4, 27]: > 128 µg/mL
MIC [4, 28]: 8 µg/mL
MIC ([5]; Enterococcus, read-out: MIC): > 256 µg/mL

CCOc1ccc2nc(S(N)(=O)=O)sc2c1 [Ethoxzolamide]
MIC [1, 22]: > 128 µg/mL
MIC [1, 23]: 1 µg/mL
MIC [2, 24]: 16 µg/mL
MIC [2, 25]: 2 µg/mL
MIC [3, 26]: > 128 µg/mL
MIC [3, 23]: 2 µg/mL
MIC [4, 27]: 64 µg/mL
MIC [4, 28]: 2 µg/mL
MIC ([5]; Enterococcus, read-out: MIC): > 256 µg/mL

CCN[C@H]1CN(CCCOC)S(=O)(=O)c2sc(S(N)(=O)=O)cc21 [Brinzolamide]
MIC [1, 22]: > 128 µg/mL
MIC [1, 23]: 2 µg/mL
MIC [2, 24]: 16 µg/mL
MIC [2, 25]: 2 µg/mL
MIC [3, 26]: > 128 µg/mL
MIC [3, 23]: 2 µg/mL
MIC [4, 27]: > 128 µg/mL
MIC [4, 28]: 4 µg/mL
MIC ([5]; Enterococcus, read-out: MIC): > 256 µg/mL
